# Measured values taken from publication PMC7768359, “Synthesis of Platinum(II) Complexes with Some 1-Methylnitropyrazoles and In Vitro Research on Their Cytotoxic Activity” (Pharmaceuticals, 2020).
# Columns and labels:
# [1] = system: ES-2 (ovarian adenocarcinoma); assay: In vitro cytotoxicity, sulforhodamine B assay; type: cell-based, human; conditions: 72 h
# Protocol: (§1) Determination of the cytotoxic activity of compounds tested was performed separately in the normoxia or hypoxia conditions to reveal their potentially bioreductive properties. The experiment was carried out on three human cancer cell lines: MCF-7 breast, ES-2 ovarian and A549 lung adenocarcinoma as well as normal murine embryonic fibroblast BALB/3T3 cell line. In order to facilitate the preparation of solutions of the tested compounds, their initial solutions for dilution were made by dissolving the compounds in acetone. For this purpose, it was not possible to use more polar aprotic solvents (DMSO, DMF) due to the rapid isomerization of some of the tested complexes under their influence.
# (§2) All the cell lines were cultured at 37 °C in a humid atmosphere containing 5% CO2. Additionally, in the case of cytotoxicity assay with hypoxic conditions, the cells (MCF-7, ES-2, A549) were maintained at 37 °C in a humid atmosphere containing 5% CO2 and 1% O2 during the entire experiment.
# (§3) Twenty-four hours before adding the tested compounds, all cell lines were seeded in 96-well plates ([…] AG & Co, Nümbrecht Germany) in an appropriate media with 10^4 cells per well. All cell lines were exposed to each compound tested at four different concentrations for 72 h. […] Additionally, all cell lines were exposed to acetone (Avantor Performance Materials, Gliwice, Poland) (the solvent used for tested compounds) at concentrations corresponding to those present in tested compounds’ dilutions.
# (§4) After 72 h of cell incubation with the compounds tested, the sulforhodamine B (SRB) assay was performed as described by Shekan et al. with minor modifications. The cells were fixed in situ by adding 50 µL per well of cold 50% trichloroacetic acid (Avantor Performance Materials, Gliwice, Poland) and were incubated at 4 °C for one hour. Following that, wells were washed five times with water and air dried. Next, 50 µL of 0.4% solution of sulforhodamine B (Sigma-Aldrich, Steinheim, Germany) in 1% acetic acid (Avantor Performance Materials, Gliwice, Poland) were added to each well and plates were incubated at room temperature for 0.5 h. After incubation time, the unbound dye was removed by washing plates five times with 1% acetic acid, whereas stains bound to cells was solubilized with 10 mM Tris base (Sigma-Aldrich, Steinheim, Germany). The absorbance of each solution was read by the Multiskan RC photometer (Labsystems Diagnostics Oy, Vantaa, Finland) at a 540 nm wavelength. Results are presented as mean IC50 (concentration of the compound tested that inhibits cell proliferation by 50%) ± standard deviation. IC50 values were calculated for each experiment on the basis of four different concentrations using Cheburator software, as described by Nevozhay. The tested compounds at each concentration were tested in triplicates in a single experiment and each experiment was repeated at least three times independently.
# [2] = system: MCF-7 (breast adenocarcinoma); assay: In vitro cytotoxicity, sulforhodamine B assay; type: cell-based, human; conditions: 72 h
# Protocol: as §1, §2, §3, §4
# [3] = system: A549 (lung adenocarcinoma); assay: In vitro cytotoxicity, sulforhodamine B assay; type: cell-based, human; conditions: 72 h
# Protocol: as §1, §2, §3, §4
# [4] = system: BALB/3T3 (murine embryonic fibroblast); assay: In vitro cytotoxicity, sulforhodamine B assay, normal cells; type: cell-based; conditions: BALB/3T3 normal cells, normoxia, 72 h
# Protocol: as §1, with “acetone.” for “acetone. For this purpose, it was not possible to use more polar aprotic solvents (DMSO, DMF) due to the rapid isomerization of some of the tested complexes under their influence.”
# All cell lines were exposed to each compound tested at four different concentrations for 72 h. […] Additionally, all cell lines were exposed to acetone (Avantor Performance Materials, Gliwice, Poland) (the solvent used for tested compounds) at concentrations corresponding to those present in tested compounds’ dilutions.
# as §4, with “Results are presented as mean IC50 (concentration of the compound tested that inhibits cell proliferation by 50%) ± standard deviation.” left out
# [5] = system: MCF-7 cells; assay: Total cellular platinum uptake (ICP OES); type: cell-based, human; conditions: MCF-7, 4 h exposure, 10 µM
# Protocol: It is necessary to strongly emphasize that the underlined values have a statistically significant lack of variance homogeneity (Fisher–Snedecor’s F-test, Fα/2) with respect to reference drug variance, so Aspin–Welch’s t-test was applied in these cases. […] For ionic compound 8, platinum uptake value was not determined due to Pt concentrations in the cell lysates being below the instrument detection limit (IDL = 10 μg/kg) specified by the manufacturer for the device used.
# Cultured MCF-7 cells were seeded at a density of 4 × 10^5 cells/well of culture medium on a 6-well plate (Corning, NY, USA) to a final volume of 2.5 mL. […] The wells without MCF-7 cells were filled with 1 mL of culture medium-containing compound tested to act as a reference for nonspecific platinum complex adsorption on the surface of the well. After incubation, all wells were washed twice with 2 mL of cold PBS, filled with 400 μL of hot (ca 90 °C) 65% nitric acid, and maintained to stand for 2 h. All wells were finally filled with 1600 μL of water and this solution was collected and analyzed using iCAP 7400 Duo ICP OES instrument (Thermo Fisher Scientific) using the plasma axial view (10 s) at λ = 265.945 nm. The amount of Pt per cell was calculated by subtracting the amount of Pt found in the blank well from the amount of Pt found in the cell-containing wells and normalized to the average number of cells per well. The mean and SD values were calculated on the basis of 4 measurements.
# [6] = logP by shake-flask method (n-octanol / 0.9% NaCl, Pt by ICP-OES); type: physicochemical; conditions: octanol/water, n = 4
# Protocol: An important factor for the pharmacokinetics and the cellular accumulation of the investigated complexes, their lipophilicity was determined by measuring octanol/water partition coefficients (logP) with the shake-flask method. The logP determination was carried out based on a previously described procedure, modified by us to obtain more accurate and repeatable results.
# Weighted amounts of the tested platinum complex were suspended by 10 min sonification in 0.9% NaCl water solution, which was previously saturated with n-octanol, and mixed by shaking for 1 h. A simultaneously similar procedure was performed using 5 mL of n-octanol pre-saturated with 0.9% NaCl. Afterward, both suspensions were mixed together, shaken for an additional 1 h, and centrifuged for 5 min. After phase separation and evaporation in vacuo of 1 mL of sample to dryness, the final concentration of Pt was determined by ICP-OES (λ = 265.945 nm) and the partition coefficients were calculated. For the analysis, all samples were dissolved 1:1000 in 2.5% HCl. Each measurement was repeated four times and the final logP was calculated as the arithmetic mean of the four values.
# [7] = parameters: method as in PMID 18777181; conditions: cited from earlier work
Compound,"IC50 ± SD ([1]; ES-2, hypoxia (1% O2))","IC50 ± SD ([1]; ES-2, normoxia)","IC50 ± SD ([2]; MCF-7, hypoxia (1% O2))","IC50 ± SD ([2]; MCF-7, normoxia)","IC50 ± SD ([3]; A549, hypoxia (1% O2))","IC50 ± SD ([3]; A549, normoxia)",IC50 ([4]; Mus musculus),"IC50 ([1]; ES-2, hypoxia (1% O2))","IC50 ([1]; ES-2, normoxia)","IC50 ([2]; MCF-7, hypoxia (1% O2))","IC50 ([2]; MCF-7, normoxia)","IC50 ([3]; A549, hypoxia (1% O2))","IC50 ([3]; A549, normoxia)",IC50 [4],Total Cellular Platinum Uptake in MCF-7 Cells (± SD) [5],logP ± SD [6],half-time of the reaction with GSH [7]
"Cn1cc([N+](=O)[O-])cn1 [1-Methyl-4-nitropyrazole, 1-methyl-4-nitropyrazole, reference compound]",inactive,inactive,inactive,inactive,inactive,inactive,> 100 µM,,,,,,,,,,
"N.N.[Cl][Pt][Cl] [Cisplatin, cisplatin, reference compound]",,,,,,,,13.7 ± 5.7 µM,8.6 ± 2.6 µM,14.7 ± 5.8 µM,12.6 ± 2.6 µM,23.9 ± 9.3 µM,9.8 ± 1.2 µM,8.67 ± 2.6 µM,74 ± 20 ng Pt/10^6 Cells,,
"COC(=O)c1c([N+](=O)[O-])c[n+]([Pt@SP2-2]([Cl])([Cl])[n+]2cc([N+](=O)[O-])c(C(=O)OC)n2C)n1C [Compound 5, cis-dichloridobis(methyl 1-methyl-4-nitropyrazole-5-carboxylate)platinum(II)]",inactive,,inactive,,inactive,inactive,,,38.1 ± 9.2 µM,,49.1 ± 30.1 µM,,,> 100 µM,39 ± 3 ng Pt/10^6 Cells,−0.58 ± 0.13,
"COC(=O)c1c([N+](=O)[O-])c[n+]([Pt@SP3-2]([Cl])([Cl])[n+]2cc([N+](=O)[O-])c(C(=O)OC)n2C)n1C [Compound 6, trans-dichloridobis(methyl 1-methyl-4-nitropyrazole-5-carboxylate)platinum(II)]",,,,,inactive,,,99.8 ± 37.9 µM,36.3 ± 8.6 µM,86.8 ± 19 µM,23.6 ± 8.6 µM,,58.2 ± 7.6 µM,> 100 µM,47 ± 17 ng Pt/10^6 Cells,−0.37 ± 0.03,
"Cc1c([N+](=O)[O-])cn(C)[n+]1[Pt@SP2-2]([Cl])([Cl])[n+]1c(C)c([N+](=O)[O-])cn1C [Compound 7, cis-dichloridobis(1,3-dimethyl-4-nitropyrazole)platinum(II)]",inactive,,inactive,,inactive,,,,68.9 ± 10 µM,,58 ± 8.7 µM,,93 ± 12.9 µM,> 100 µM,16 ± 7 ng Pt/10^6 Cells,−0.69 ± 0.04,
"COC(=O)c1c([N+](=O)[O-])cn(C)[n+]1[Pt-2]([Cl])([Cl])[Cl].[K+] [Compound 8, potassium trichlorido(3-carboxymethyl-1-methyl-4-nitropirazole)platinate(II)]",inactive,,inactive,inactive,inactive,inactive,,,48.5 ± 25.9 µM,,,,,> 100 µM,^† below IDL,−1.22 ± 0.08,
N.N.[Cl][Pt+2][Cl] [transplatin],,,,,,,,,,,,,,,,,4 min
